# Results: US6967212B2, “Substituted azole acid derivatives useful as antidiabetic and antiobesity agents and method” (Bristol-Myers Squibb Company, priority 2001, dated 2005)
# Marks after values point to notes of the source that are not given here.
# Tests used:
# Gene expression in WAT = assay: Gene expression profiling of white adipose tissue of treated db/db mice; format: in vivo; conditions: obese diabetic db/db mice
# Description: Examples of such genes include adipophilin and keratinocyte fatty acid binding protein, the gene products of these genes are involved in intracellular fatty acid trafficking).
# Adipose (fat) tissue is a major place of synthesis of PAI-1, a risk factor for thrombosis, angiotensinogen precursor, a risk factor for hypertension and renin, a risk factor for hypertension (see Ahima and Flier, TEM, 11: 327-332, 2000).
# [1] = target: T1, human PPARγ ligand binding domain (Homo sapiens, UniProt P37231); assay: PPARγ ligand binding study with purified ligand binding domain; conditions: competition with labeled PPARγ ligand BMS-compound A
# T1 sequence (P37231 238-503 limits assumed): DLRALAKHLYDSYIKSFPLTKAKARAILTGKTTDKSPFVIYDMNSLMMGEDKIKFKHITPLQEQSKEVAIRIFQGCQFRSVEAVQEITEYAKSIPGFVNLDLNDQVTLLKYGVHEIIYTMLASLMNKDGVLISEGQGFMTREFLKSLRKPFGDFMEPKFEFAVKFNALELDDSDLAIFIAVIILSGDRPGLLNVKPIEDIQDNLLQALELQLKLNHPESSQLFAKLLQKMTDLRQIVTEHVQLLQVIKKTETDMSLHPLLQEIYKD
# Description: Compound Y is a compound synthesized by the scheme outlined in Example 1 herein.
# [2] = tested on: mouse 3T3-L1 pre-adipocytes; assay: Inhibition of rosiglitazone induced differentiation of 3T3-L1 pre-adipocytes (glycerol release); format: cell-based; conditions: rosiglitazone induced differentiation of 3T3-L1 cells
# Experimental: PPARγ has been considered a major trigger for the adipocyte differentiation process (see Tontonoz et al., Current Biology, 571-576, 1995).
# 5×10^5 3T3-L1 cells per plate were added to 96 well plates and cultured in DMEM-high glucose and 10% FBS medium for two days, before induction. Cells were induced for 48 hr with 1 μm dexamethasone, 5 μg/ml insulin, and […] isobutylmethylxanthine (IBMX) in the same medium. […] After a total of 5 days incubation, 4 μl of media from each well were collected and diluted into 40 μl of H2O in 96 well ELISA plate, 300 μl of Triglycerides Blank Reagent (Bayer Diagnostics) was added into each well and incubated for 5 min at room temperature. […] The ED50 values were calculated using standard equations for mid-point of the activity inhibition curves.
# PPARα = target: T2, PPARα (Homo sapiens, UniProt Q07869); assay: PPARα dependent SEAP reporter transactivation in HepG2 cells; format: cell-based
# T2 construct: HepG2 cells (human liver origin), that express endogenous PPARα gene were stably transfected with a PPAR responsive SEAP reporter gene; endogenous in cells; host or cells: HepG2 cells stably transfected with a PPAR responsive SEAP reporter
# T2 sequence (Q07869 1-468): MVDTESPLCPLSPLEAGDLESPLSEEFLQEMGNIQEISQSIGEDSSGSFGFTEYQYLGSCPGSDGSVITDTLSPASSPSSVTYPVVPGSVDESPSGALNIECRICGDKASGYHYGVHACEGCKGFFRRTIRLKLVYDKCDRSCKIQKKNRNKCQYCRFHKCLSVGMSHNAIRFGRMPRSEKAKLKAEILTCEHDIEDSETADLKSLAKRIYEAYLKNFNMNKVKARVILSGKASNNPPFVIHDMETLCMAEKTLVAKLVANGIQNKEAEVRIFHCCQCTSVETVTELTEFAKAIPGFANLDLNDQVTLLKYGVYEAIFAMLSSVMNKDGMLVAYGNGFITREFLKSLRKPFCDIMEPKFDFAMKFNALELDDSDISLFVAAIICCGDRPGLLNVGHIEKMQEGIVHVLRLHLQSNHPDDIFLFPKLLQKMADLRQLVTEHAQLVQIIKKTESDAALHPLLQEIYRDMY
# Description: HepG2 cells (human liver origin), that express endogenous PPARα gene were stably transfected with a PPAR responsive SEAP reporter gene.
# Reporter gene constructs were made by inserting either 3 repeats of the rat fatty acid binding protein PPRE including the 7 nucleotides immediately 5′, or 4 repeats of the gal4 response element upstream of the SV40 early minimal promoter of pSEAP2 (Clontech), 3×PPRE-SEAP and gal4-SEAP respectively. The chimeric receptor was made by cloning the cDNA encoding the ligand binding domain of human PPAR α in frame and 3′ to the gal4 DNA binding domain (amino acids 1-47) in the mammalian bicistronic expression vector pIRESlneo (Clontech), gal4-PPAR α. […] Following the incubation, media was removed, and endogenous phosphatases were inactivated as indicated above and SEAP activity in 25 μl aliquots of processed media was assayed in clear bottom, black 96 well plate (Falcon) by the addition of 100 μl Attophos reagent (Promega), incubation for 5 minutes in the dark at room temperature, and measuring the increase in fluorescence (excitation 450 nm, emission 580 nm) in a CytoFluor series 4000 plate reader (Perseptive Biosystems) 8 cycles, 1 minute/cycle. The relative rates of fluorescence emission were calculated as fold increase over DMSO control. […] The ED50 values were calculated using standard equations for mid-point of the activity curves.
# [3] = target: T3, human PPARα ligand binding domain (Homo sapiens, UniProt Q07869); assay: PPARα ligand binding study with purified ligand binding domain; conditions: competition with labeled PPARα ligand BMS-compound B
# T3 sequence (Q07869 239-466 limits assumed): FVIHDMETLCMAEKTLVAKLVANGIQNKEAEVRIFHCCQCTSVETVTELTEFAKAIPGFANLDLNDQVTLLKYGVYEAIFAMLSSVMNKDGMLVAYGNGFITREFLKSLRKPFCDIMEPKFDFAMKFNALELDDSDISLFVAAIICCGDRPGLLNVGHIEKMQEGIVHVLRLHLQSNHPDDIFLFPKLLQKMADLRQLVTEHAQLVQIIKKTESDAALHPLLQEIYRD
# Description: FIG. 1B: Illustrates the binding of a labeled authentic PPARα ligand (BMS-compound B) to human PPARα binding domain.
# Compound Y is a compound synthesized by the scheme outlined in Example 1 herein. […] The in vitro ligand binding studies with purified ligand binding domain thus show the ability of Compound Y to bind potently to both PPARγ and PPARα. It is however, well known for the nuclear hormone receptor family of transcription factors that (PPARs are members of this family) that a compound which potently binds to (i.e. a ligand) can act as an agonist (ligand which activates) and an antagonist (ligand which inactivates the receptor).
# PPARγ = PPARγ (Chlorocebus sabaeus, UniProt A0A0D9RBU3); assay: Inhibition of rosiglitazone induced SEAP reporter transactivation in CV-1 cells; format: cell-based, primate; conditions: read-out: ED50 for inhibition of rosiglitazone induced transactivation of SEAP gene, PPAR responsive SEAP reporter
# Description: The established CV-1 cells (primate kidney origin), that show expression of endogenous PPARγ, were stably transfected with a PPAR responsive secreted alkaline phosphatase (SEAP) reporter gene.
# CV-1 cells (these cell express endogenous PPARγ gene) were transfected with a 3×PPRE-SEAP reporter gene DNA construct and stable colonies were selected, expanded and tested for responsiveness to compounds using standard protocols. SEAP reporter gene constructs were made by inserting 3 repeats of the rat fatty acid binding protein PPRE including the 7 nucleotides immediately 5′ to the SV40 early minimal promoter of pSEAP2 (Clontech). 1.2×10^6 CV-1/PPRE-SEAP cells were plated in a 96 well plate one day before compound addition. […] 150 μl aliquots of each concentration were delivered to two non-adjacent wells. […] Media was collected in fresh 96 well plates 40 hrs following incubation with compounds and assayed for SEAP activity. […] The plate was incubated for 5′ in the dark, and then the fluorescence measured in a CytoFluor series 4000 plate reader (Perseptive Biosystems): excitation filter, 450/50 nm; emission filter, 580/50 nm; 8 cycles, 1 minute/cycle, 3 reads/well/cycle. […] The ED50 values were calculated using standard equations for mid-point of the activity inhibition curves.
# [4] = tested on: obese diabetic db/db mice; assay: Plasma glucose and lipids in treated obese diabetic db/db mice; format: in vivo; conditions: 3 mg/kg/day
# Description: As illustrated in Table 3 treatment of obese diabetic db/db mice with the dual PPARγ antagonist/PPARα agonist Compound Y results in no significant change in plasma glucose and a significant decrease in plasma triglycerides and free fatty acids levels. As indicated before, changes in lipid and glycemic conditions are two significant potential concerns of reducing PPARγ activity. Based on the study described here it is concluded that obese mammals can be safely treated with a dual PPARγ antagonist/PPARα agonist. The reduction in plasma triglycerides and free fatty acids are likely due to the […] activity of Compound Y.
# diet induced obese mice = assay: Diet induced obese mice: body composition, plasma and liver parameters; format: in vivo
# Description: As indicated before, changes in lipid and glycemic conditions are two potential concerns of reducing PPARγ activity. Based on the study described here it is concluded that safe reduction of fat mass in an obese diabetic mammal (including human) is possible through administration of a dual PPARγ antagonist/PPARα agonist. This feature is in contrast to the observed hyperlipidemia and hyperglycemia in lipodystrophic patients and in patients with severe mutations in PPARγ gene.
# In obese mice, as in obese human, the liver lipid level is elevated. Often, this is accompanied by an increase in plasma liver enzyme ALT level indicating to liver damage. Upon treatment with dual PPARγ antagonist/PPARα agonist Compound Y there was a substantial reduction in liver triglyceride content, although not reaching statistical significance, which was accompanied by a significant reduction in plasma liver enzyme ALT levels. Both these changes are indicative of improvement in liver function as a result of stimulation of PPARα mediated fatty acid oxidation and reduction of lipid synthesis leading to reduced lipid content (see. Torra et al., Current Opinion in Lipidology, 10: 151-159, 1999; Kersten et al., Nature, 405: 421424, 2000).
# C57BL/6 mice were fed a diet rich in fat (40%) and sucrose (40%) (see, York {Genetic models of obesity} and Sclafani {Dietary models of obesity}, both in Obesity, Bjorntorp and Brodoff eds. JB Lippincott Company, 1992; McIntosh and Pederson; McNeill. eds. CRC press LLC, 337-398, 1999; Farrelly et al., Proc. Natl. Acad. Sci. 96: 14511-14516, 1999). Under these dietary conditions, C57BL/6 mice gain considerable body weight and become obese. These mice were treated with a dual PPARγ antagonist/PPARα agonist (dose 0.01 to 100 mg/kg/day), administered in a pharmacologically acceptable vehicle (such as but not limited to, 5% CM-cellulose) through orally, intravenous, subcutaneous or intraportal injection, or mixed with food or water, acutely or over an extended period of time. During the course of the study, various parameters such as water and food consumption, body weight gain, body composition by dual emission X-ray analyzer (DEXA, this instrument accurately measures body fat mass, body lean muscle mass and body bone mineral content), body temperature was measured by standard methods. Through tail vein bleeding, blood was collected in heparin-EDTA coated tubes to prevent clotting and blood plasma was separated and analyzed for glucose, free fatty acids, triglycerides and cholesterol using reagent kits available from Roche Diagnostics in a COBAS-MIRA instrument. Insulin and leptin are measured by commercially available ELISA kits. Compounds that act to reduce body weight and or decrease glucose were selected. At the end of the treatment period animals were euthanized by brief exposure to CO2 and internal organs such as liver and white adipose tissue were harvested for additional analysis. These analyses may include, but not limited to, determination of lipid content, and effect on various PPARγ and PPARα target gene expression.
# [5] = 10 mg/kg/day once a day, 3 weeks
# [6] = 10 mg/kg/day, 3 weeks, P < 0.05
# [7] = 3 weeks at 10 mg/kg/day, once a day
# Sequence of PPARγ (A0A0D9RBU3 entry or part of it): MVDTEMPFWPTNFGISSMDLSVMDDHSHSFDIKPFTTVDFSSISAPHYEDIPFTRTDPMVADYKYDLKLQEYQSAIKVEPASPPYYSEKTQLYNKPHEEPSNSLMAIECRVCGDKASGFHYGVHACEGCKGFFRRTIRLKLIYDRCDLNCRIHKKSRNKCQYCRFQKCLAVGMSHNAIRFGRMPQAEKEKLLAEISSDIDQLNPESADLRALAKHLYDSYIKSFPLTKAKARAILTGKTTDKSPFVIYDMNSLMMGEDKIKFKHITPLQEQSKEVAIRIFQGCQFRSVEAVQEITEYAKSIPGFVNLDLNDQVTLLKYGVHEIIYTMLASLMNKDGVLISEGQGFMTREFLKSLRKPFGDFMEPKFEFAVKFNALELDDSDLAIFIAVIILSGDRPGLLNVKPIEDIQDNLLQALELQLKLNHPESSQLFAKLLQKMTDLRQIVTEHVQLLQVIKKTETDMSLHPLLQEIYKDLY
compound,measurement,setting,value
"CN(CCOc1ccc(CC2SC(=O)NC2=O)cc1)c1ccccn1 (stereo not drawn) [rosiglitazone, reference compound]",G-protein coupled receptor 26 gene expression in WAT,Gene expression in WAT,4.3
same,Renin gene expression in WAT,Gene expression in WAT,13.9
"CCCCCCCC1SC(CC(=O)N(Cc2ccccc2)Cc2ccccc2)C(=O)N1CCCCc1ccc(C(=O)O)cc1 (stereo not drawn) [GW0072, reference compound]",IC50,[1],280 nM
same,ED50 for inhibition of differentiation,[2],585 nM
BMS-250773 [reference compound],EC50,PPARα,63 nM
"CCCCCCCN(CCc1ccc(O[C@@](C)(CC)C(=O)O)cc1)C(=O)Nc1ccc(F)cc1F [GW-2331, reference compound]",IC50,[3],410 nM
Cc1oc(-c2ccccc2)nc1CCOc1cccc(Cc2nn(-c3ccccc3)nc2C(=O)O)c1 [Compound Y],IC50,[1],69 nM
same,IC50,[3],69 nM
same,ED50 for inhibition of differentiation,[2],9900 nM
same,EC50,PPARγ,1500 nM
same,EC50,PPARα,587 nM
same,Adipophilin gene expression in WAT,Gene expression in WAT,4.1
same,Angiotensinogen precursor gene expression in WAT,Gene expression in WAT,0.46
same,Glycerol-3 PO4 dehydrogenase gene expression in WAT,Gene expression in WAT,0.39
same,HMGic gene expression in WAT,Gene expression in WAT,2.2
same,Keratinocyte fatty acid binding protein gene expression in WAT,Gene expression in WAT,3.3
same,PAI-1 gene expression in WAT,Gene expression in WAT,0.45
same,Free fatty acids,[4],0.76 ± 0.12 meq/L
same,Glucose,[4],683.0 ± 25.2 mg/dL
same,"Glucose, change versus vehicle",[4],−13%
same,Triglyceride,[4],145.3 ± 12.5 mg/dL
same,"Free fatty acids, change versus vehicle",[4]; p < 0.05,−36%*
same,"Triglyceride, change versus vehicle",[4]; p < 0.05,−45%*
same,"plasma lipid (free fatty acids, triglycerides and cholesterol) and glycemic (glucose and insulin) parameters (in words)",diet induced obese mice,very little change
same,Liver triglycerides,diet induced obese mice; 10 mg/kg/day,55.4 ± 7.0 mg/g
same,% Fat body mass,diet induced obese mice; [5],41.5 ± 1.8%
same,% Lean body mass,diet induced obese mice; [5],56.0 ± 1.8%
same,"% Fat body mass, change versus vehicle",diet induced obese mice; [6],(−12%)*
same,"% Lean body mass, change versus vehicle",diet induced obese mice; [6],(+11%)*
same,"ALT, change versus vehicle","diet induced obese mice; 10 mg/kg/day, P < 0.05",(−38%)*
same,"Liver triglycerides, change versus vehicle","diet induced obese mice; 10 mg/kg/day, not statistically significant",(−24%)
same,body weight (in words),diet induced obese mice; [7],no significant reduction in body weight
same,increase in lean body mass,diet induced obese mice; [7],14%
same,reduction of body fat mass,diet induced obese mice; [7],15%
same,ALT,"diet induced obese mice; plasma, 10 mg/kg/day",98.0 ± 12.6 IU/L
same,Cholesterol,"diet induced obese mice; plasma, 10 mg/kg/day",270.4 ± 9.4 mg/dL
same,Glucose,"diet induced obese mice; plasma, 10 mg/kg/day",260.7 ± 12.3 mg/dL
same,Insulin,"diet induced obese mice; plasma, 10 mg/kg/day",8.2 ± 1.2 ng/mL
same,Triglyceride,"diet induced obese mice; plasma, 10 mg/kg/day",105.5 ± 8.1 mg/dL
